Experimental data from patent publication US11180494B2, “Substituted amino acids as integrin inhibitors” (Pliant Therapeutics, Inc., priority 2018, dated 2021).

Biological target: human integrin αvβ6 (Homo sapiens (Human), UniProt P06756+P18564)
Test: Proximity-based integrin receptor binding assay (ALPHASCREEN) for inhibitor potency
Conditions: inhibition of binding of TGF-b1 LAP to human integrin αvβ6, values given in ranges
How it was run: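 AlphaScreen: integrin, compound, TGF-b1 LAP, biotinylated anti-LAP antibody and acceptor beads incubated 2 hours, then streptavidin donor beads 30 minutes, at room temperature in 50 mM Tris-HCl pH 7.5, 0.1% BSA, 1 mM CaCl2 and MgCl2. Excitation 680 nm, emission 520-620 nm; IC50 by four-parameter logistic fit.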

human integrin αvβ6, sequence (P06756 31-992): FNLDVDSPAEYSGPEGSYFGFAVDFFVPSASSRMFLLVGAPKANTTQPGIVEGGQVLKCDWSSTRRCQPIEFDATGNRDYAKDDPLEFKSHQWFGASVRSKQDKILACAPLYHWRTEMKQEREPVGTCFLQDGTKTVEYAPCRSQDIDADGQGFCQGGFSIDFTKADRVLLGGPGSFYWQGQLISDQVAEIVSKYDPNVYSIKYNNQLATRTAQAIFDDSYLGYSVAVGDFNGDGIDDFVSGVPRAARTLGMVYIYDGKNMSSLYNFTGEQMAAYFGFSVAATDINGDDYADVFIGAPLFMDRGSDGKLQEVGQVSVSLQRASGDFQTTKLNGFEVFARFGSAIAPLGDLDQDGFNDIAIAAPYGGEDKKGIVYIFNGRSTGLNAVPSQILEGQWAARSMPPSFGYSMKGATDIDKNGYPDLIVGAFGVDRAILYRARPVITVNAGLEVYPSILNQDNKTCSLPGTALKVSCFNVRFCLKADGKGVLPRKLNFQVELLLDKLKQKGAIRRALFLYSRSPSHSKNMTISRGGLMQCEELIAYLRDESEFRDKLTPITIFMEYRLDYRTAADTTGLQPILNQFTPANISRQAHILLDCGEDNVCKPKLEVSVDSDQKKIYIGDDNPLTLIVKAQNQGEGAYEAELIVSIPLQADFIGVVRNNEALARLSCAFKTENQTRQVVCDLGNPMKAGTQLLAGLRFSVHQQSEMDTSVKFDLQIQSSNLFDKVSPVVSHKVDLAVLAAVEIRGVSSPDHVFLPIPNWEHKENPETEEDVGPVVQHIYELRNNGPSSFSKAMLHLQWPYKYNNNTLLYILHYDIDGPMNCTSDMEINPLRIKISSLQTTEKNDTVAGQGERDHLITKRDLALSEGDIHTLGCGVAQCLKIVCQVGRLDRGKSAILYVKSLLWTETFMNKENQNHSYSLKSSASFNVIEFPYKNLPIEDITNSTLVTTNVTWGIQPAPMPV
human integrin αvβ6, sequence (P18564 22-707): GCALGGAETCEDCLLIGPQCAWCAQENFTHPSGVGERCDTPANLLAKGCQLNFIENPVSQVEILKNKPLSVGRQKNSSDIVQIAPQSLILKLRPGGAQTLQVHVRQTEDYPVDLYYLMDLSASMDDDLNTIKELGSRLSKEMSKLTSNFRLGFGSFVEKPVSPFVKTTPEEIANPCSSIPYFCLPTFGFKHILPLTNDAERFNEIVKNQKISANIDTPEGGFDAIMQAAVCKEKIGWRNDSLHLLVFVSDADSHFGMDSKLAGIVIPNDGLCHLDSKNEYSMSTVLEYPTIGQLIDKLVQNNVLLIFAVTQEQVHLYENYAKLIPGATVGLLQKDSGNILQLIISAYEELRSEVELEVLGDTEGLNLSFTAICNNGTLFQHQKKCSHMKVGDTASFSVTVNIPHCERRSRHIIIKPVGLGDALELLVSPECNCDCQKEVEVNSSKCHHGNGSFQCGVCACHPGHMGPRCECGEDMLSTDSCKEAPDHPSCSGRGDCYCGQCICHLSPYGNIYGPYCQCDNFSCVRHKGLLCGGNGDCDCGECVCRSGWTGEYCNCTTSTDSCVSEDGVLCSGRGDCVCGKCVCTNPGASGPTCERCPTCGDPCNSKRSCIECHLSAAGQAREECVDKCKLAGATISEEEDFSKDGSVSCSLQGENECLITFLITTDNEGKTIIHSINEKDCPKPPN

Row | Compound | IC50 | IC50 (listed as 98**)
1 | CC(C)(CO)C(=O)NC(CCO[C@H]1C[C@H](CCc2ccc3c(n2)NCCC3)C1)C(=O)O (stereo partly drawn) [Compound 89, N-(3-hydroxy-2,2-dimethylpropanoyl)-O-(trans-3-(2-(5,6,7,8-tetrahydro-1,8-naphthyridin-2-yl)ethyl)cyclobutyl)homoserine] | 250 to 1000 nM | –
2 | COCC(C)(C)C(=O)NC(CCO[C@H]1C[C@H](CCc2ccc3c(n2)NCCC3)C1)C(=O)O (stereo partly drawn) [Compound 90, N-(3-methoxy-2,2-dimethylpropanoyl)-O-(trans-3-(2-(5,6,7,8-tetrahydro-1,8-naphthyridin-2-yl)ethyl)cyclobutyl)homoserine] | 250 to 1000 nM | –
3 | CC(C)(C(=O)NC(CCO[C@H]1C[C@H](CCc2ccc3c(n2)NCCC3)C1)C(=O)O)c1cccnc1 (stereo partly drawn) [Compound 91, N-(2-methyl-2-(pyridin-3-yl)propanoyl)-O-(trans-3-(2-(5,6,7,8-tetrahydro-1,8-naphthyridin-2-yl)ethyl)cyclobutyl)homoserine] | 50 to 250 nM | –
4 | CC(C)(CC#N)C(=O)NC(CCO[C@H]1C[C@H](CCc2ccc3c(n2)NCCC3)C1)C(=O)O (stereo partly drawn) [Compound 93, N-(3-cyano-2,2-dimethylpropanoyl)-O-(trans-3-(2-(5,6,7,8-tetrahydro-1,8-naphthyridin-2-yl)ethyl)cyclobutyl)homoserine] | 50 to 250 nM | –
5 | O=C(O)C(CCO[C@H]1C[C@H](CCc2ccc3c(n2)NCCC3)C1)NC(=O)C1(c2ccccc2)CC1 (stereo partly drawn) [Compound 97, N-(1-phenylcyclopropane-1-carbonyl)-O-(trans-3-(2-(5,6,7,8-tetrahydro-1,8-naphthyridin-2-yl)ethyl)cyclobutyl)homoserine] | < 50 nM | –
6 | CC(C)(C(=O)NC(CCO[C@H]1C[C@H](CCc2ccc3c(n2)NCCC3)C1)C(=O)O)c1ccccc1 (stereo partly drawn) [Compound 98, N-(2-methyl-2-phenylpropanoyl)-O-(trans-3-(2-(5,6,7,8-tetrahydro-1,8-naphthyridin-2-yl)ethyl)cyclobutyl)homoserine] | – | < 50 nM
7 | CC(C)(Cc1ccccc1)C(=O)NC(CCO[C@H]1C[C@H](CCc2ccc3c(n2)NCCC3)C1)C(=O)O (stereo partly drawn) [Compound 100, N-(2,2-dimethyl-3-phenylpropanoyl)-O-(trans-3-(2-(5,6,7,8-tetrahydro-1,8-naphthyridin-2-yl)ethyl)cyclobutyl)homoserine] | 50 to 250 nM | –
8 | CC(C)(C)OC(=O)NC(CCO[C@H]1C[C@H](CCc2ccc3c(n2)NCCC3)C1)C(=O)O (stereo partly drawn) [Compound 101, N-(tert-butoxycarbonyl)-O-(trans-3-(2-(5,6,7,8-tetrahydro-1,8-naphthyridin-2-yl)ethyl)cyclobutyl)homoserine] | < 50 nM | –
9 | CC(C)(C(=O)NC(CCO[C@H]1C[C@H](CCc2ccc3c(n2)NCCC3)C1)C(=O)O)c1ccc(F)cc1 (stereo partly drawn) [Compound 102, N-(2-(4-fluorophenyl)-2-methylpropanoyl)-O-(trans-3-(2-(5,6,7,8-tetrahydro-1,8-naphthyridin-2-yl)ethyl)cyclobutyl)homoserine] | < 50 nM | –
10 | CC(C)(CO)C(=O)NC(CCO[C@H]1C[C@H](CCc2ccc3c(n2)NCCC3)C1)C(=O)O (stereo partly drawn) [Compound 104, N-(3-hydroxy-2,2-dimethylpropanoyl)-O-(trans-3-(2-(5,6,7,8-tetrahydro-1,8-naphthyridin-2-yl)ethyl)cyclobutyl)homoserine] | < 50 nM | –
11 | CC(C)(C(=O)NC(CCO[C@H]1C[C@H](CCc2ccc3c(n2)NCCC3)C1)C(=O)O)c1cccnc1 (stereo partly drawn) [Compound 106, N-(2-methyl-2-(pyridin-3-yl)propanoyl)-O-(trans-3-(2-(5,6,7,8-tetrahydro-1,8-naphthyridin-2-yl)ethyl)cyclobutyl)homoserine] | < 50 nM | –
12 | O=C(NC(CCO[C@H]1C[C@H](CCc2ccc3c(n2)NCCC3)C1)C(=O)O)C1Cc2ccccc2C1 (stereo partly drawn) [Compound 107, N-(2,3-dihydro-1H-indene-2-carbonyl)-O-(trans-3-(2-(5,6,7,8-tetrahydro-1,8-naphthyridin-2-yl)ethyl)cyclobutyl)homoserine] | < 50 nM | –
13 | CC1(OC(=O)N[C@@H](CCO[C@H]2C[C@H](CCc3ccc4c(n3)NCCC4)C2)C(=O)O)CCC1 [Compound 114, N-((1-methylcyclobutoxy)carbonyl)-O-(trans-3-(2-(5,6,7,8-tetrahydro-1,8-naphthyridin-2-yl)ethyl)cyclobutyl)homoserine] | < 50 nM | –
14 | CC(C)OC(=O)N[C@@H](CCO[C@H]1C[C@H](CCc2ccc3c(n2)NCCC3)C1)C(=O)O [Compound 116, N-(isopropoxycarbonyl)-O-(trans-3-(2-(5,6,7,8-tetrahydro-1,8-naphthyridin-2-yl)ethyl)cyclobutyl)homoserine] | < 50 nM | –
15 | CC(C)N(C)C(=O)N[C@@H](CCO[C@H]1C[C@H](CCc2ccc3c(n2)NCCC3)C1)C(=O)O [Compound 120, N-(isopropyl(methyl)carbamoyl)-O-(trans-3-(2-(5,6,7,8-tetrahydro-1,8-naphthyridin-2-yl)ethyl)cyclobutyl)homoserine] | < 50 nM | –
16 | CC(C)N(C(=O)N[C@@H](CCO[C@H]1C[C@H](CCc2ccc3c(n2)NCCC3)C1)C(=O)O)C(C)C [Compound 121, N-(diisopropylcarbamoyl)-O-(trans-3-(2-(5,6,7,8-tetrahydro-1,8-naphthyridin-2-yl)ethyl)cyclobutyl)homoserine] | < 50 nM | –
17 | CC(C)(C)CC(=O)N[C@@H](CCO[C@H]1C[C@H](CCc2ccc3c(n2)NCCC3)C1)C(=O)O [Compound 122, N-(3,3-dimethylbutanoyl)-O-(trans-3-(2-(5,6,7,8-tetrahydro-1,8-naphthyridin-2-yl)ethyl)cyclobutyl)homoserine] | 50 to 250 nM | –
18 | CC(C)CC(=O)N[C@@H](CCO[C@H]1C[C@H](CCc2ccc3c(n2)NCCC3)C1)C(=O)O [Compound 123, N-(3-methylbutanoyl)-O-(trans-3-(2-(5,6,7,8-tetrahydro-1,8-naphthyridin-2-yl)ethyl)cyclobutyl)homoserine] | < 50 nM | –

Second part, the compound after the results:

Row | IC50 | IC50 (listed as 98**) | Compound
19 | 250 to 1000 nM | – | O=C(NC(CCO[C@H]1C[C@H](CCc2ccc3c(n2)NCCC3)C1)C(=O)O)C1Cc2ccccc2C1 (stereo partly drawn) [Compound 92, N-(2,3-dihydro-1H-indene-2-carbonyl)-O-(trans-3-(2-(5,6,7,8-tetrahydro-1,8-naphthyridin-2-yl)ethyl)cyclobutyl)homoserine]
20 | 50 to 250 nM | – | CC(C)(C)C(=O)NC(CCO[C@H]1C[C@H](CCc2ccc3c(n2)NCCC3)C1)C(=O)O (stereo partly drawn) [Compound 94, N-pivaloyl-O-(trans-3-(2-(5,6,7,8-tetrahydro-1,8-naphthyridin-2-yl)ethyl)cyclobutyl)homoserine]
21 | < 50 nM | – | CC1(C(=O)NC(CCO[C@H]2C[C@H](CCc3ccc4c(n3)NCCC4)C2)C(=O)O)COC1 (stereo partly drawn) [Compound 103, N-(3-methyloxetane-3-carbonyl)-O-(trans-3-(2-(5,6,7,8-tetrahydro-1,8-naphthyridin-2-yl)ethyl)cyclobutyl)homoserine]
22 | < 50 nM | – | COCC(C)(C)C(=O)NC(CCO[C@H]1C[C@H](CCc2ccc3c(n2)NCCC3)C1)C(=O)O (stereo partly drawn) [Compound 105, N-(3-methoxy-2,2-dimethylpropanoyl)-O-(trans-3-(2-(5,6,7,8-tetrahydro-1,8-naphthyridin-2-yl)ethyl)cyclobutyl)homoserine]
23 | < 50 nM | – | CC(C)(CC#N)C(=O)NC(CCO[C@H]1C[C@H](CCc2ccc3c(n2)NCCC3)C1)C(=O)O (stereo partly drawn) [Compound 108, N-(3-cyano-2,2-dimethylpropanoyl)-O-(trans-3-(2-(5,6,7,8-tetrahydro-1,8-naphthyridin-2-yl)ethyl)cyclobutyl)homoserine]
24 | < 50 nM | – | CC(C)(C)C(=O)NC(CCO[C@H]1C[C@H](CCc2ccc3c(n2)NCCC3)C1)C(=O)O (stereo partly drawn) [Compound 109, N-pivaloyl-O-(trans-3-(2-(5,6,7,8-tetrahydro-1,8-naphthyridin-2-yl)ethyl)cyclobutyl)homoserine]
25 | 50 to 250 nM | – | CC(C)(C)COC(=O)N[C@@H](CCO[C@H]1C[C@H](CCc2ccc3c(n2)NCCC3)C1)C(=O)O [Compound 112, N-((neopentyloxy)carbonyl)-O-(trans-3-(2-(5,6,7,8-tetrahydro-1,8-naphthyridin-2-yl)ethyl)cyclobutyl)homoserine]
26 | < 50 nM | – | CC1(OC(=O)N[C@@H](CCO[C@H]2C[C@H](CCc3ccc4c(n3)NCCC4)C2)C(=O)O)CC1 [Compound 113, N-((1-methylcyclopropoxy)carbonyl)-O-(trans-3-(2-(5,6,7,8-tetrahydro-1,8-naphthyridin-2-yl)ethyl)cyclobutyl)homoserine]
27 | < 50 nM | – | CC(C)(OC(=O)N[C@@H](CCO[C@H]1C[C@H](CCc2ccc3c(n2)NCCC3)C1)C(=O)O)C(F)(F)F [Compound 115, O-(trans-3-(2-(5,6,7,8-tetrahydro-1,8-naphthyridin-2-yl)ethyl)cyclobutyl)-N-(((1,1,1-trifluoro-2-methylpropan-2-yl)oxy)carbonyl)homoserine]
28 | < 50 nM | – | CCN(CC)C(=O)N[C@@H](CCO[C@H]1C[C@H](CCc2ccc3c(n2)NCCC3)C1)C(=O)O [Compound 117, N-(diethylcarbamoyl)-O-(trans-3-(2-(5,6,7,8-tetrahydro-1,8-naphthyridin-2-yl)ethyl)cyclobutyl)homoserine]
29 | < 50 nM | – | CC(C)(C)NC(=O)N[C@@H](CCO[C@H]1C[C@H](CCc2ccc3c(n2)NCCC3)C1)C(=O)O [Compound 118, N-(tert-butylcarbamoyl)-O-(trans-3-(2-(5,6,7,8-tetrahydro-1,8-naphthyridin-2-yl)ethyl)cyclobutyl)homoserine]
30 | 50 to 250 nM | – | CN(C(=O)N[C@@H](CCO[C@H]1C[C@H](CCc2ccc3c(n2)NCCC3)C1)C(=O)O)C(C)(C)C [Compound 119, N-(tert-butyl(methyl)carbamoyl)-O-(trans-3-(2-(5,6,7,8-tetrahydro-1,8-naphthyridin-2-yl)ethyl)cyclobutyl)homoserine]
31 | < 50 nM | – | O=C(CC1CCC1)N[C@@H](CCO[C@H]1C[C@H](CCc2ccc3c(n2)NCCC3)C1)C(=O)O [Compound 124, N-(2-cyclobutylacetyl)-O-(trans-3-(2-(5,6,7,8-tetrahydro-1,8-naphthyridin-2-yl)ethyl)cyclobutyl)homoserine]
